Test results taken from paper PMC7260283, “The Amino Terminus of LeuT Changes Conformation in an Environment Sensitive Manner” (Neurochemical Research, 2019).

Target: T1, wild type LeuT (Aquifex aeolicus, UniProt O67854)
T1 construct: gene snf; full-length, His-tagged, expressed in E. coli C41(DE3), purified in DDM; plasmid from Eric Gouaux
Assay: scintillation proximity assay, competition of cold leucine with [3H]leucine, YSi beads
Assay type: binding
Settings: purified His-tagged protein; competitive with [3H]leucine

Work on `CC(C)C[C@H](N)C(=O)O` [leucine] yielded a KI of 15.5 ± 2.4 nM.
